{"source": "ChEMBL document CHEMBL3865849", "about": "“Development of N-(4-Phenoxyphenyl)benzenesulfonamide Derivatives as Novel Nonsteroidal Progesterone Receptor Antagonists” (ACS Med Chem Lett, 2016)", "molecular_target": "Androgen receptor (Mus musculus) (UniProt P19091)", "sequence (P19091 whole entry, looked up)": "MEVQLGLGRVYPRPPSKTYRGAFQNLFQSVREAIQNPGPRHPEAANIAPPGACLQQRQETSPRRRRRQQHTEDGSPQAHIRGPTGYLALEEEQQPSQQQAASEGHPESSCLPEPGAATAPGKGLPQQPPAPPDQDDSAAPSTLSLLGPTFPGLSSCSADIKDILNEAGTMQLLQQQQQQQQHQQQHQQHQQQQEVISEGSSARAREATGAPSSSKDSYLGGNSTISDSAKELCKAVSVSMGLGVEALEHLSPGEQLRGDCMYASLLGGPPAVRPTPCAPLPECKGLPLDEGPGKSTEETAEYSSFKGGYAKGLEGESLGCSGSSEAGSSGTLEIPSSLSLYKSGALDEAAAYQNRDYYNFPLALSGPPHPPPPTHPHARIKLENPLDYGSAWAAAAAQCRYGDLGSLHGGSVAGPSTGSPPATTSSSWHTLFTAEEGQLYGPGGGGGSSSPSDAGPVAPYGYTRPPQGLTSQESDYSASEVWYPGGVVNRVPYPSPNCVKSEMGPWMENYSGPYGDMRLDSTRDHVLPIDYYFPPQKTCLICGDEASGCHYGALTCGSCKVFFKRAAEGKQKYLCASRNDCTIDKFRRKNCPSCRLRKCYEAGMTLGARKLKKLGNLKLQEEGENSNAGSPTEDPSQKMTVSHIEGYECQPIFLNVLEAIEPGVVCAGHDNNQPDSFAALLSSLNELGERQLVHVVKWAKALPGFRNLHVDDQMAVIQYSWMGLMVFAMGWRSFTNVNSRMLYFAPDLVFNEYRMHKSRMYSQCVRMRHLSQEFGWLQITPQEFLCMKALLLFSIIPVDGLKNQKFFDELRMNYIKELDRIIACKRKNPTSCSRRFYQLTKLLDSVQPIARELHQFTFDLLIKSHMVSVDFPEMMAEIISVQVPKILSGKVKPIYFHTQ", "experiment": "Antagonist activity at androgen receptor in mouse SC-3 cells assessed as inhibition of DHT-induced cell growth at 1 uM co-treated with DHT measured after 3 days by CCK8 assay"}
{"smiles": "O=S(=O)(Nc1ccc(Oc2ccccc2)cc1)c1cccc(Cl)c1", "values": [{"measurement": "inhibition", "result": 8.4, "unit": "%"}]}
